Results on two compounds are retold here after US20160074353A1, “USE OF PETROSELINIC ACID TO FIGHT AGAINST AESTHETIC DISORDERS OF THE BODY FIGURE” (L'OREAL, priority 2013, published 2016).

For the assay, the system named is lipoxin A4. Description: Synthesis/release of lipoxin A4 by stimulated (PMA/A23187 + DHA/EPA) mononuclear blood cells, LC-MS quantification, % modulation relative to the control. In kind it is cell-based. The following applies: % modulation vs stimulated control. On the procedure: Mononuclear blood cells are cultured under 5% CO2 and at 37° C. in a serum-free medium for macrophages (SFM Macrophage; Invitrogen 12065074) for 24 hours.
After this step, the medium is replaced with the same fresh test medium also containing the active agents at the various doses for 30 minutes in the presence of the various products to be evaluated, as indicated in the table of results below. The inflammatory response was then triggered in the presence of phorbol myristate (0.05 μM) and calcium ionophore (1 μM) and of a lipid substrate mixture composed of docosahexaenoic acid (DHA—1 μg/mL) and eicosapentaenoic acid (EPA—1 μg/mL).
The supernatants were then collected after 2 hours of stimulation and frozen at −80° C. before preparation for analysis by mass spectrometry.
Experimental triplicates (three wells) were prepared per experimental condition. Into each culture plate was placed a control corresponding to cells stimulated with the PMA/A23187 mixture and/or with addition of the equimolar mixture of fatty acids.
The thawed supernatants were concentrated by solid-phase extraction (SPE) and taken up in methanol before spectrometric analysis. The analytical method used consists in separating the various analytes by high-pressure liquid chromatography as a function of their retention time and in quantifying them by mass spectrometry. […]

For Zinc gluconate, for the setting “zinc gluconate 0.005 mg/ml”, the “Level of lipoxin A4 production” value was −5%.
As for `NCCS(=O)(=O)O` [Taurine], the “Level of lipoxin A4 production” value (taurine 3.1 mg/ml) is recorded as “+38%”.
